Experimental data reported in paper PMC10447463, “Data-mining unveils structure–property–activity correlation of viral infectivity enhancing self-assembling peptides” (Nature Communications, 2023).
Like-named read-outs stand apart in the source and are kept apart here.

How the values were obtained:
[1] = Zeta-potential measurement; type: physicochemical; details: for Zeta-pot. / mV: zeta potential of peptide, Fig S15 source data
Summary of the method: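 Samples: 1 mg/mL in PBS pH 7.4 (from DMSO), 1 d at RT, then diluted in 1 mM KCl immediately before measurement. Triplicates, two independent runs averaged.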

[2] = test system: HIV-1 infection of TZM-bl cells; test: HIV-1 infectivity enhancement assay, β-galactosidase luminescence; type: cell-based; details: for Log10 Inf. rel. to EF-C: log10 of HIV-1 infection of TZM-bl cells relative to EF-C, Fig S15 source data; for Log10 Infection Rel EF-C: HIV-1 infection of TZM-bl cells
[3] = Turbidity, derived count rate of scattered light; type: physicochemical; details: for Log Count Rate: log of derived count rate
Summary of the method: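 One-day room-temperature aggregation at 1 mg/mL in PBS (pH 7.4) preceded measurement; samples then went into 1 mM KCl. Triplicates per sample, two independent experiments averaged.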

[4] = Feb2021, 1.3 µM value relative to virus only (0 µM)
[5] = Feb2021, Log10 of infectivity relative to EF-C
[6] = Feb2021, n-fold enhancement relative to EF-C
[7] = Feb2021, n-fold infectivity relative to EF-C
[8] = Feb2021, unrounded values of the 1.3 µM column
[9] = Feb2021 run, infectivity n-fold relative to virus alone
[10] = Feb2021 run, log10 of infectivity relative to EF-C
[11] = Feb2021 run, n-fold infectivity relative to EF-C
[12] = infectivity class (low / medium / high) of each library peptide, main list in c1-c6, same classes repeated in sub-lists of sequences containing the hydrophobicity/charge patterns P+,H0,P+,H0,P0,H0,P0, P+,H0,P0,H0,P0,H0,P0, P+,H0,P0,H0
[13] = infectivity class (low / medium / high) of the peptide in the sequence-pattern analysis, Fig. S22-A4, class limits not given
[14] = category 1 or 0 from count rate, key not given
[15] = derived count rate of scattered light, mean, std deviation in next column
[16] = derived count rate of scattered light, mean, std deviation in separate column
[17] = Feb2021, log10 of infectivity relative to EF-C

| Substance | Zeta category ( +1 = if > 4 mV;-1 = if < -4 mV; 0 = -4mV to 4 mV) [1] | Zeta category ( +1 = if > 4 mV;-1 = if < -4 mV; 0 = -4mV to 4 mV) ([1]; category from zeta potential) | Zeta Pot. / mV ([1]; mean, Std Zeta in next column) [mV] | Zeta Pot. / mV ([1]; mean, Std in separate column) [mV] | Zeta-pot. / mV [1] [mV] | n-fold to virus (Feb2021) [2, 4] | Log10 of Rel to EFC (Feb2021) [2, 5] | Rel-to EFC (Feb-2021) [2, 6] | Rel-to EFC (Feb-2021) [2, 7] | Absolute Infectivity / RLU /s (Feb2021) [2, 8] [RLU /s] | n-fold to virus (Feb2021) [2, 9] | Log10 of Rel to EFC (Feb2021) [2, 10] | Rel-to EFC (Feb-2021) [2, 11] | infectivity [2, 12] | infectivity [2, 13] | Log10 Inf. rel. to EF-C ([2]; asymmetric std dev errors) | Zeta Count Rate Category ([3]; category 1/0, no key printed) | Zeta Count Rate Category [3, 14] | Zeta Count Rate / kcps [3, 15] [kcps] | Zeta Count Rate / kcps [3, 16] [kcps] | other results |
| --- | --- | --- | --- | --- | --- | --- | --- | --- | --- | --- | --- | --- | --- | --- | --- | --- | --- | --- | --- | --- | --- |
| CKIKIQINM [MG2] | 1 (+1 = if > 4 mV) | 1 (+1 = if > 4 mV) | 16.83 | 16.83 | 16.83 | 66.78 | 0.2012 | 1.589 | 1.589 | 30273.33333 | 66.78 | 0.2012 | 1.589 | high | high | 0.2012 | 1 | 1 | 4228 | 4228 |  |
| CQFQFQF [QBL4] | -1 (-1 = if < -4 mV) |  | -24.8 |  | -24.8 | 14.84 |  |  | 0.3533 | 7570 |  |  |  | medium |  | -0.4519 | 1 |  | 7929 |  | Log10 of Rel to EFC (Feb2021) [2, 17]: -0.4519; Rel-to EFC ([2]; Fig S8 panels B, D, infectivity enhancement relative to EF-C): 0.3533; n-fold to virus ([2]; Fig S8 panels B, D, infectivity n-fold relative to virus alone): 14.84; Log Count Rate ([3]; Fig S8 panels A, C, asymmetric log errors): 3.899; Log Count Rate ([3]; Fig S8 panels B, D): 3.899; Count Rate ([3]; Fig S8 panels B, D, turbidity, derived count rate of scattered light): 7928.97 |
| KAKAQANMWQ [JG3] | -1 (-1 = if < -4 mV) | -1 (-1 = if < -4 mV) | -19.63 | -19.63 | -19.63 | 0.3005 | -2.146 | 0.007152 | 0.007152 | 193.3 | 0.3005 | -2.146 | 0.007152 | low |  | -2.146 | 0 | 0 | 56.17 | 56.17 |  |
| KFKFQFW [TM71] | 1 (+1 = if > 4 mV) |  | 6.49 | 6.49 | 6.49 |  | -0.7899 |  | 0.1622 |  | 6.817 | -0.7899 | 0.1622 | medium |  | -0.7899 |  |  | 121.9 | 121.9 | Zeta Pot. / mV [1]: 6.49 mV; Zeta category ( +1 = if > 4 mV;-1 = if < -4 mV; 0 = -4mV to 4 mV) ([1]; category derived from the zeta potential): 1 (+1 = if > 4 mV); Absolute Infectivity / RLU /s (Feb2021) ([2]; Feb2021, figures match the 1.3 µM column): 4953 RLU /s; Rel-to EFC (Feb-2021) ([2]; Feb2021, infectivity enhancement relative to EF-C): 0.1622; n-fold to virus (Feb2021) ([2]; Feb2021, infectivity relative to virus only): 6.817; Zeta Count Rate Category ([3]; category 1 / 0, no key given): 1; Zeta Count Rate Category ([3]; category 1 or 0 derived from the count rate, key not given): 1; Zeta Count Rate / kcps ([3]; derived count rate of scattered light): 121.9 kcps |
| CEIEIQINM [TM144] | -1 (-1 = if < -4 mV) |  | -15.3 | -15.3 | -15.3 | 2.736 |  |  | 0.06512 | 3593 |  |  |  |  | low | -1.186 | 0 |  | 58.43 |  | Log10 of Rel to EFC (Feb2021) [2, 17]: -1.186; Rel-to EFC (Feb-2021) ([2]; infectivity enhancement relative to EF-C (=1), Feb2021 run): 0.06512; n-fold to virus (Feb2021) ([2]; infectivity n-fold relative to virus only, Feb2021 run): 2.736; Log10 of Rel to EFC (Feb2021) ([2]; log10 of infectivity relative to EF-C, Feb2021 run): -1.186; Zeta Count Rate / kcps ([3]; derived count rate from zeta measurement, mean): 58.43 kcps; Zeta Count Rate Category ([3]; key not given): 0 |
| CKFKFQFNMW [KB14] | 1 (+1 = if > 4 mV) |  | 18.4 | 18.4 | 18.4 | 40.34 |  |  | 0.9602 | 21516.66667 | 40.34 | -0.01766 | 0.9602 | high | high | -0.01766 | 1 |  | 4107 | 4107 | Log10 of Rel to EFC (Feb2021) [2, 17]: -0.01766 |
| QCKIKIQINM [CK2] | 1 (+1 = if > 4 mV) | 1 (+1 = if > 4 mV) | 11.37 | 11.37 | 11.37 | 16.64 | -0.4024 | 0.3959 | 0.3959 | 15250 | 16.64 | -0.4024 | 0.3959 | medium |  | -0.4024 | 1 | 1 | 9524 | 9524 |  |
| KLKQLL |  |  |  |  |  |  |  |  |  |  |  |  |  |  |  |  |  |  |  |  | Zeta-Pot. ([1]; zeta potential of peptide assemblies): -8.46; Zeta-Potential / mV ([1]; zeta-potential of peptide, source data of Figure 2C): -5.682 mV; Zeta-Potential / mV ([1]; zeta-potential of the peptide assemblies, mean, Figure 3A source data): -8.46 mV; Rel-EFC ([2]; 1.3 µM peptide, infection relative to EF-C (QCKIKQIINMWQ = 1)): 0,01; Log10 Infection Rel EFC ([2]; 1.3 µM peptide, log10 of infection relative to EF-C): -2,13; Log Infectivity ([2]; Fig. S7 panel A (plotted against β-sheet content), Log10 infection relative to EF-C, TZM-bl cells, asymmetric std dev errors): -2.131; Log10 Infection Rel EF-C ([2]; Log10 of infection rate relative to EF-C, Figure 3A source data): -2.13; Log10 Infection Rel EF-C ([2]; infection rate relative to EF-C, log10, data of Figure 2D): -2.131; Log10 Infection Rel EF-C ([2]; infection rate relative to EF-C, log10, source data of Figure 2C): -2.131; Log10 Count Rate ([3]; Log10 of derived count rate of scattered light (turbidity)): 2.505; Count Rate / kcps ([3]; derived count rate of scattered light at 633 nm, 173°, from zeta-potential measurement, 0.1 mg/mL in 1 mM KCl after 1 d at 1 mg/mL in PBS, turbidity / microscopic aggregation, mean of triplicate): 320 kcps; Log10 Count Rate ([3]; log10 of derived count rate of scattered light (turbidity)): 2.505; Log10 Count Rate ([3]; turbidity, Log10 of derived count rate of scattered light, Figure 3A source data): 2.505 |
